Experimental data published in EP4772509A1, “KINESIN KIF18A INHIBITOR, AND APPLICATION THEREOF” (Shanghai Apeiron Therapeutics Company Limited, priority 2023, dated 2025).
Where “and” joins values, the source holds several entries; their conditions need not be identical. Equal entries are not always repeated.

tested on: OVCAR3 cells; assay: Cell proliferation activity test (CyQUANT Direct); type: cell-based; details: 3 days, 0.2% DMSO, CyQUANT fluorescence
Experimental: Materials and Cells: OVCAR3 cells were purchased from Nanjing Cobioer Biosciences Co., Ltd. RPMI-1640 medium, fetal bovine serum, and the CyQUANT Direct Cell Proliferation Assay kit were purchased from Thermo Fisher Scientific, USA; 96-well cell culture plates were sourced from Corning, USA.
Cell Culture: OVCAR3 cells were cultured with RPMI-1640 medium containing 10% fetal bovine serum and incubated in a 5% CO2 incubator at 37°C. Only cells in the logarithmic growth phase could be used for the test.
OVCAR3 cells were inoculated into a 96-well cell culture plate at 90 µL per well and incubated overnight in a 5% CO2 incubator at 37°C. The compound powder was dissolved in DMSO to prepare a stock solution of 10 mM. Then gradient dilution was performed for the compounds in the microplate to achieve a final concentration of 0-10 µM. 10 µL of cell culture medium containing compounds was added to each well to make the final DMSO content 0.2%. The cell plates were incubated in a 5% CO2 incubator at 37°C for 3 days. 100 µL of CyQUANT detection reagent was added to each well, reacted at 37°C for 60 min, and fluorescence detection was performed using the PerkinElmer Envision.

IC50 [nM]	Compound
38	Cc1cc2nc(n1)C1CN(/C=C/CC3CCN(CC3)c3cc(NS(=O)(=O)CCO)ccc3-c3cn-2nn3)CCC1(F)F (single isomer, unassigned) [Example 84C, N-((3^4Z,7E)-1^4,1^4-difluoro-2^6-methyl-3^1H-2(2,4)-pyrimidin-1(1,3),5(1,4)-dipiperidin-3(1,4)-triazole-4(1,2)-benzocyclooct-7-en-4^4-yl)-2-hydroxyethane-1-sulfonamide]

same assay, conditions: Homo sapiens, OVCAR-3, 72 h, 3 days, 0.2% DMSO, CyQUANT fluorescence

IC50 [nM]	Compound
100	Cc1cc2nc(n1)N1CCC(F)=C(/C=C/CC3CCN(CC3)c3cc(NS(=O)(=O)CCO)ccc3-n3cc-2nn3)C1 [Example 83, N-((3^4Z,7E)-1^4-fluoro-2^6-methyl-1^1,1^2,1^3,16-tetrahydro-3^1H-2(2,4)-pyrimidin-1(1,5)-pyridin-5(1,4)-piperidin-3(4,1)-triazole-4(1,2)-benzylcyclooct-7-en-4^4-yl)-2-hydroxyethane-1-sulfonamide]
34	Cc1cc2nc(n1)N1CCC(F)(F)C(C=CCC3CCN(CC3)c3cc(NS(=O)(=O)CCO)ccc3-n3cc-2nn3)C1 (stereo not shown) [Example 81, N-((3^4,7)-1^4,1^4-difluoro-2^6-methyl-3^1H-2(2,4)-pyrimidin-1(1,3),5(1,4)-dipiperidin-3(4,1)-triazole-4(1,2)-benzocyclooct-7-en-44-yl)-2-hydroxyethane-1-sulfonamide]
2580	Cc1cc2nc(n1)N1CCC(F)(F)C(/C=C\c3ccc(cc3)-c3cc(NS(=O)(=O)CCO)ccc3C(=O)N2)C1 (stereo not shown) [Example 43, N-(2^4,2^4-difluoro-1^6-methyl-7-oxo-8-aza-1(2,4)-pyrimidin-2(1,3)-piperidin-5(1,4),6(1,2)-diphenylcyclooct-3-en-6^5-yl)-2-hydroxyethane-1-sulfonamide]

Compound	IC50 [nM]
Cc1cc2nc(n1)N1CCC(F)(F)C(/C=C/CCC3CCN(CC3)c3cc(NS(=O)(=O)CCO)ccc3-n3cc-2nn3)C1 (racemic) [Example 86, N-((3^4,8)-1^4,1^4-difluoro-2^6-methyl-3^1H-2(2,4)-pyrimidin-1(1,3),5(1,4)-dipiperidin-3(4,1)-triazole-4(1,2)-benzoazacyclononane-8-en-44-yl)-2-hydroxyethane-1-sulfonamide]	63
Cc1cc2nc(n1)N1CCC(F)(F)C(CCCc3ccc(cc3)-c3cc(NS(=O)(=O)CCO)c(F)cc3C(=O)N2)C1 (stereo not shown) [Example 53, 2-Hydroxy-N-(1^4,1^4,5^5-trifluoro-2^6-methyl-4-oxo-3-aza-2(2,4)-pyrimidin-1(1,3)-piperidin-5(1,2),6(1,4)-diphenylheterocyclononane-5^4-yl)ethane-1-sulfonamide]	46

molecular target: T1, Human KIF18A (amino acid sequence 1-417) (Homo sapiens, UniProt Q8NI77); assay: Enzymatic activity test (ADP-Glo, microtubule-stimulated ATPase); type: biochemical; details: 60 µg/mL microtubules, 25 µM ATP, 2.5 nM KIF18A protein, 120 min at ambient temperature, chemiluminescence; read-out: KIF18A IC50
T1 construct: purchased Viva Biotech (Shanghai) Ltd
T1 sequence (Q8NI77 1-417): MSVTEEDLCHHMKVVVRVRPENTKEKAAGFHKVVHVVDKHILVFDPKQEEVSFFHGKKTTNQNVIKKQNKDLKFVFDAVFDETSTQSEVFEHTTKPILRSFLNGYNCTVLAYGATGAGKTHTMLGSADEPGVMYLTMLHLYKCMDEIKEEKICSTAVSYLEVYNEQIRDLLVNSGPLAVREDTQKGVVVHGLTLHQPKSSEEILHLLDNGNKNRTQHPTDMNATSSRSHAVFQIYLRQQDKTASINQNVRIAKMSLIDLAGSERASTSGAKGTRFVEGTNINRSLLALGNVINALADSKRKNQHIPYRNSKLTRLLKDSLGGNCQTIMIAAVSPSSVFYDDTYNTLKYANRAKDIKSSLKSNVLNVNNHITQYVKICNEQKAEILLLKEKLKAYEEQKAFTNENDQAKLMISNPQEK
Experimental: Materials: Human KIF18A (amino acid sequence 1-417) was purchased from Viva Biotech (Shanghai) Ltd.; the ADP-Glo™ protein kinase kit was acquired from Promega, USA; tubulin was sourced from Cytoskeleton, USA; and the 384-well assay plate and Envision multifunctional microplate reader were obtained from PerkinElmer, USA.
Enzymatic Activity Test: The compound powder was dissolved in DMSO to prepare a stock solution of 10 mM. Then gradient dilution was performed for the compounds in the microplate to achieve a final concentration of 0-10 µM. Then, 2.5 µL each of tubulin, compound, ATP, and KIF18A protein were added to the microplate in sequence for reaction at ambient temperature for 120 min. The final concentrations in the enzyme reaction were 60 µg/mL for microtubules, 25 µM for ATP, and 2.5 nM for KIF18A protein. After the enzyme reaction, 10 µL of ADP-GLO reaction reagent was added to each well and incubated at room temperature for 30 min. After that, 20 µL of detection reagent was added to each well and incubated at room temperature for 30 min in the dark. Finally, chemiluminescence detection was performed using the PerkinElmer Envision.

IC50	Compound
186 nM	Cc1cc2nc(n1)C1CN(/C=C/CC3CCN(CC3)c3cc(NS(=O)(=O)CCO)ccc3-c3cn-2nn3)CCC1(F)F (single isomer, unassigned) [Example 84C, N-((3^4Z,7E)-1^4,1^4-difluoro-2^6-methyl-3^1H-2(2,4)-pyrimidin-1(1,3),5(1,4)-dipiperidin-3(1,4)-triazole-4(1,2)-benzocyclooct-7-en-4^4-yl)-2-hydroxyethane-1-sulfonamide]
126 nM	Cc1cc2nc(n1)N1CCC(F)(F)C(CCC3=CC=C(S3)c3cc(NS(=O)(=O)CCO)ccc3C(=O)N2)C1 (stereo not shown) [Example 63, N-(2^4,2^4-difluoro-1^6-methyl-7-oxo-8-aza-1(2,4)-pyrimidin-2(1,3)-piperidin-5(2,5)-thiophene-6(1,2)-benzeneheterocyclooctan-6^5-yl)-2-hydroxyethane-1-sulfonamide]
60 nM	COc1cc2nc(n1)N1CCC(F)(F)C(CCC3=CC=C(S3)c3cc(NS(=O)(=O)CCO)ccc3C(=O)N2)C1 (stereo not shown) [Example 61, N-(2^4,2^4-difluoro-1^6-methoxy-7-oxo-8-aza-1(2,4)-pyrimidin-2(1,3)-piperidin-5(2,5)-thiophene-6(1,2)-benzeneheterocyclooctan-6^3-yl)-2-hydroxyethane-1-sulfonamide]
40 nM	COc1cc2nc(n1)N1CCC(F)(F)C(/C=C\C3=CC=C(S3)c3cc(NS(=O)(=O)CCO)ccc3C(=O)N2)C1 (stereo not shown) [Example 60, N-(2^4,2^4-difluoro-1^1-methoxy-7-oxo-8-aza-1(2,4)-pyrimidin-2(1,3)-piperidin-5(2,5)-thiophene-6(1,2)-benzenecyclooctane-3-en-6^5-yl)-2-hydroxyethane-1-sulfonamide]
135 nM	COc1cc2nc(n1)N1CCC(F)(F)C(CCCC3=CC=C(S3)c3cc(NS(=O)(=O)CCO)ccc3C(=O)N2)C1 (stereo not shown) [Example 65, N-(1^4,1^4-difluoro-2^6-methoxy-4-oxo-3-aza-2(2,4)-pyrimidin-1(1,3)-piperidin-6(2,5)-thiophene-5(1,2)-benzoazacyclononane-5^4-yl)-2-hydroxyethane-1-sulfonamide]
43 nM	Cc1cc2nc(n1)N1CCC(F)(F)C(C=CCc3csc(c3)-c3cc(NS(=O)(=O)CCO)ccc3C(=O)N2)C1 (stereo not shown) [Example 66, N-(1^4,1^4-difluoro-2^6-methyl-4-oxo-3-aza-2(2,4)-pyrimidin-1(1,3)-piperidin-6(2,4)-thiophene-5(1,2)-benzoazacyclon-8-en-5^4-yl)-2-hydroxyethane-1-sulfonamide]
45 nM	Cc1cc2nc(n1)N1CCC(F)(F)C(CCc3csc(c3)-c3cc(NS(=O)(=O)CCO)ccc3C(=O)N2)C1 (stereo not shown) [Example 69, N-(2^4,2^4-difluoro-1^6-methyl-7-oxo-8-aza-1(2,4)-pyrimidin-2(1,3)-piperidin-5(2,4)-thiophene-6(1,2)-benzeneheterocyclooctan-6^5-yl)-2-hydroxyethane-1-sulfonamide]
251 nM	Cc1cc2nc(n1)NCC(C)C=CC1=CC=C(S1)c1cc(NS(=O)(=O)CCO)ccc1C(=O)N2 (stereo not shown) [Example 70, N-(5^6,8-dimethyl-3-oxo-4,6-diaza-5(4,2)-pyrimidin-1(2,5)-thiophene-2(1,2)-benzenecyclodec-9-en-25-yl)-2-hydroxyeth ane-1-sulfonamide]
35 nM	Cc1cc2nc(n1)N1CCC(F)(F)C(/C=C\C3=CC=C(S3)c3cc(NS(=O)(=O)CCO)ccc3C(=O)N2)C1 (stereo not shown) [Example 62, N-(2^4,2^4-difluoro-1^6-methyl-7-oxo-8-aza-1(2,4)-pyrimidin-2(1,3)-piperidin-5(2,5)-thiophene-6(1,2)-benzeneheterocyclooct-3-en-6^5-yl)-2-hydroxyethane-1-sulfonamide]
223 nM	COc1cc2nc(n1)N1CCC(F)(F)C(CCCc3c(F)cc(cc3F)-c3cc(NS(=O)(=O)CCO)ccc3C(=O)N2)C1 (stereo not shown) [Example 59, 2-hydroxy-N-(1^4,1^4,6^3,6^5-tetrafluoro-2^6-methoxy-4-oxo-3-aza-2(2,4)-pyrimidin-1(1,3)-piperidin-5(1,2),6(1,4)-diphenylheterocyclononane-54-yl)ethane-1-sulfonamide]
97 nM	COc1cc2nc(n1)N1CCC(F)(F)C(/C=C\CC3=CC=C(S3)c3cc(NS(=O)(=O)CCO)ccc3C(=O)N2)C1 (stereo not shown) [Example 64, N-(1^4,1^4-difluoro-2^6-methoxy-4-oxo-3-aza-2(2,4)-pyrimidin-1(1,3)-piperidin-6(2,5)-thiophene-5(1,2)-benzoazacyclon-8-en-5^4-yl)-2-hydroxyethane-1-sulfonamide]
155 nM	Cc1cc2nc(n1)N1CCC(F)(F)C(CCCc3csc(c3)-c3cc(NS(=O)(=O)CCO)ccc3C(=O)N2)C1 (stereo not shown) [Example 68, N-(1^4,1^4-difluoro-2^6-methyl-4-oxo-3-aza-2(2,4)-pyrimidin-1(1,3)-piperidin-6(2,4)-thiophene-5(1,2)-benzoazacyclononane-5^4-yl)-2-hydroxyethane-1-sulfonamide]
113 nM	2-Hydroxy-N-(8-methyl-2^1,3-dione-2^2,2^3-dihydro-2^1H-4,6-diaza-5(2,6)-pyridin-1(1,4)-piperidin-2(5,4)-indenoundecan e-9-en-2^7-yl)ethane-1-sulfonamide [Example 38]

Compound	IC50
Cc1cc2nc(n1)N1CCC(F)(F)C(/C=C/CCC3CCN(CC3)c3cc(NS(=O)(=O)CCO)ccc3-n3cc-2nn3)C1 (racemic) [Example 86, N-((3^4,8)-1^4,1^4-difluoro-2^6-methyl-3^1H-2(2,4)-pyrimidin-1(1,3),5(1,4)-dipiperidin-3(4,1)-triazole-4(1,2)-benzoazacyclononane-8-en-44-yl)-2-hydroxyethane-1-sulfonamide]	352 nM
Cc1cc2nc(n1)N1CCC(F)(F)C(CCCc3ccc(cc3)-c3cc(NS(=O)(=O)CCO)c(F)cc3C(=O)N2)C1 (stereo not shown) [Example 53, 2-Hydroxy-N-(1^4,1^4,5^5-trifluoro-2^6-methyl-4-oxo-3-aza-2(2,4)-pyrimidin-1(1,3)-piperidin-5(1,2),6(1,4)-diphenylheterocyclononane-5^4-yl)ethane-1-sulfonamide]	49 nM
Cc1cc2nc(n1)N1CCC(F)(F)C(/C=C/CC3CC4(C3)CN(C4)c3cc(NS(=O)(=O)CCO)ccc3C(=O)N2)C1 (stereo not shown) [Example 47, N-(6^4,6^4-difluoro-5^1-methyl-3-oxo-4-aza-5(4,2)-pyrimidin-6(1,3)-piperidin-1(1,3)-azetidin-2(1,2)-benzene-10(1,3)-cyclobutyramide-7-en-2^5-yl)-2-hydroxyethane-1-sulfonamide]	566 nM and 625 nM
